Values after ≈ are worked out from the molar mass of the structure shown.
Tested on: Bacillus subtilis 168CA
Assay: Minimum Inhibitory Concentration (MIC) testing, broth microdilution, Bacillus subtilis
Type: cell-based
Details: Bacillus subtilis 168CA; read-out: Bacillus subtilis MICs Activity
Description: Compounds of this invention were tested for antimicrobial activity by susceptibility testing in liquid media. MICs for compounds against each strain were determined by a broth microdilution method according to the National Committee for Clinical Laboratory Standards (NCCLS) guidelines. (NCCLS. 2000. Methods for dilution antimicrobial susceptibility tests for bacteria that grow aerobically—fifth edition. Approved standard M7-A5. NCCLS, Wayne, Pa.)
Briefly, test compounds are prepared in 100 μl of 1.6% DMSO solution in multiwell plates. Several bacterial colonies from a freshly streaked plate are transferred to an appropriate rich broth, such as Mueller Hinton. The cell suspension is adjusted to an optical density of 0.09 and further diluted 1:100 with warm 2× broth. This cell suspension is dispensed into the wells containing compound solution so that the final volume is 200 μl. The plates are incubated overnight (16-20 hours) at 37° C. and turbidity is scored by eye and quantified spectrophotometrically. The MIC is defined as the lowest concentration inhibiting visible growth.
Activities were scored as ‘A’ if the MIC was ≦8 micrograms/ml, ‘B’ if the MIC was 16 to 64 micrograms/ml and ‘C’ if the MIC was greater than 64 micrograms/ml.

Compound `NC(=O)c1c(F)ccc(OCc2nc(-c3ccc(Cl)c([N+](=O)[O-])c3)no2)c1F` [Example 329, 3-[3-(4-Chloro-3-nitro-phenyl)-[1,2,4]oxadiazol-5-ylmethoxy]-2,6-difluoro-benzamide] has an MIC of less than 8 µg/mL.
`NC(=O)c1c(F)ccc(OCc2ccc3cccnc3c2)c1F` [Example 330, 2,6-Difluoro-3-(quinolin-7-ylmethoxy)-benzamide] was tested, and the MIC was 16 to 64 µg/mL (≈ 50.9 to 204 µM).
Compound `Cc1ccc2nc(COc3ccc(F)c(C(N)=O)c3F)ccc2c1` [Example 97, 2,6-Difluoro-3-(6-methyl-quinolin-2-ylmethoxy)-benzamide] has an MIC of less than 8 µg/mL.
Work on `CC(C)CCCOc1cccc(C(N)=O)c1` [Example 14, 3-[(4-Methylpentyl)oxy]benzenecarboxamide] yielded an MIC of 16 to 64 µg/mL (≈ 72.3 to 289 µM).
`COc1cc(-c2noc(COc3ccc(F)c(C(N)=O)c3F)n2)ccc1OC(F)F` [Example 328, 3-[3-(4-Difluoromethoxy-3-methoxy-phenyl)-[1,2,4]oxadiazol-5-ylmethoxy]-2,6-difluoro-benzamide] showed an MIC of less than 8 µg/mL.
`NC(=O)c1c(F)ccc(OCc2cccc(OCc3ccccc3)c2)c1F` [Example 154, 3-(3-Benzyloxy-benzyloxy)-2,6-difluoro-benzamide] was tested, and the MIC was less than 8 µg/mL.
Work on `CCCOc1cccc(C(N)=O)c1` [Example 2, 3-Propoxybenzenecarboxamide] yielded an MIC greater than 64 µg/mL.
`CCOC(=O)CCCOc1cccc(C(N)=O)c1` [Example 25, Ethyl 4-[3-(aminocarbonyl)phenoxy]butanoate] was tested, and the MIC was greater than 64 µg/mL.
`COc1ccc(CCOc2cccc(C(N)=O)c2)cc1` [Example 35, 3-[(4-Methoxyphenethyl)oxy]benzenecarboxamide] gave an MIC of 16 to 64 µg/mL (≈ 59 to 236 µM).
With `CCCCOc1cccc(C(N)=O)c1` [Example 7, 3-Butoxybenzenecarboxamide] the MIC was greater than 64 µg/mL.
For `CCCCCCC#CCOc1cccc(C(N)=O)c1` [Example 50, 3-(2-Nonynyloxy)benzenecarboxamide], the MIC was less than 8 µg/mL.
With `Cc1cccc(-c2ccc3sc(COc4ccc(F)c(C(N)=O)c4F)nc3c2)c1` [Example 142, 2,6-Difluoro-3-(5-m-tolyl-benzothiazol-2-ylmethoxy)-benzamide] the MIC was less than 8 µg/mL.
`C=C(C)COc1cccc(C(N)=O)c1` [Example 11, 3-[(2-Methyl-2-propenyl)oxy]benzenecarboxamide] was tested, and the MIC was greater than 64 µg/mL.
Compound `CCCCC#CCCCCOc1cccc(C(N)=O)c1` [Example 48, 3-(5-Decynyloxy)benzenecarboxamide] has an MIC of less than 8 µg/mL.
In the case of `NC(=O)c1c(F)ccc(OCc2cccc([N+](=O)[O-])c2)c1F` [Example 332, 2,6-Difluoro-3-(3-nitro-benzyloxy)-benzamide], the MIC is reported as 16 to 64 µg/mL (≈ 51.9 to 208 µM).
`COC(=O)CCCCCCCCCOc1cccc(C(N)=O)c1` [Example 38, Methyl 10-[3-(aminocarbonyl)phenoxy]decanoate] gave an MIC of less than 8 µg/mL.
In the case of `NC(=O)c1c(F)ccc(OCc2nc(COc3c(Cl)cccc3Cl)no2)c1F` [Example 264, 3-(3-[(2,6-Dichlorophenoxy)methyl]-1,2,4-oxadiazol-5-ylmethoxy)-2,6-difluorobenzenecarboxamide], the MIC is reported as 16 to 64 µg/mL (≈ 37.2 to 149 µM).
In the case of `COc1ccc(-c2noc(COc3ccc(F)c(C(N)=O)c3F)n2)c(OC)c1` [Example 261, 3-[3-(2,4-Dimethoxyphenyl)-1,2,4-oxadiazol-5-yl]methoxy-2,6-difluorobenzenecarboxamide], the MIC is reported as 16 to 64 µg/mL (≈ 40.9 to 164 µM).
With `NC(=O)c1cccc(OCCCCOc2ccccc2)c1` [Example 10, 3-(4-Phenoxybutoxy)benzenecarboxamide] the MIC was less than 8 µg/mL.
`CCCOCCOc1cccc(C(N)=O)c1` [Example 16, 3-(2-Propoxyethoxy)benzenecarboxamide] gave an MIC greater than 64 µg/mL.
Work on `NC(=O)c1cccc(OCC2CC2)c1` [Example 4, 3-(Cyclopropylmethoxy)benzenecarboxamide] yielded an MIC greater than 64 µg/mL.
`NC(=O)c1cccc(OCCc2ccc(F)cc2)c1` [Example 34, 3-[(4-Fluorophenethyl)oxy]benzenecarboxamide] gave an MIC of 16 to 64 µg/mL (≈ 61.7 to 247 µM).
Compound `NC(=O)c1c(F)ccc(OCc2nnc(-c3ccccc3)o2)c1F` [Example 238, 2,6-Difluoro-3-[(5-phenyl-1,3,4-oxadiazol-2-yl)methoxy]benzenecarboxamide] has an MIC of 16 to 64 µg/mL (≈ 48.3 to 193 µM).
Work on `NC(=O)c1c(F)ccc(OCc2cn3ccccc3n2)c1F` [Example 203, 2,6-Difluoro-3-(imidazo[1,2-a]pyridin-2-ylmethoxy)benzenecarboxamide] yielded an MIC greater than 64 µg/mL.
`NC(=O)c1c(F)ccc(OCc2ccc3ccccc3c2)c1F` [Example 113, 2,6-Difluoro-3-(naphthalen-2-ylmethoxy)-benzamide] gave an MIC of less than 8 µg/mL.
In the case of `CC(C)CCOc1cccc(C(N)=O)c1` [Example 13, 3-(Isopentyloxy)benzenecarboxamide], the MIC is reported as 16 to 64 µg/mL (≈ 77.2 to 309 µM).
`Cc1cccc2nc(COc3ccc(F)c(C(N)=O)c3F)ccc12` [Example 96, 2,6-Difluoro-3-(5-methyl-quinolin-2-ylmethoxy)-benzamide] was tested, and the MIC was 16 to 64 µg/mL (≈ 48.7 to 195 µM).
With `NC(=O)c1c(F)ccc(OCc2nc(-c3cccc([N+](=O)[O-])c3)no2)c1F` [Example 259, 2,6-Difluoro-3-[3-(3-nitrophenyl)-1,2,4-oxadiazol-5-yl]methoxybenzenecarboxamide] the MIC was less than 8 µg/mL.
With `NC(=O)c1cccc(OCCCCCc2ccccc2)c1` [Example 21, 3-[(5-Phenylpentyl)oxy]benzenecarboxamide] the MIC was 16 to 64 µg/mL (≈ 56.5 to 226 µM).
`Cc1sc(-c2ccccc2)nc1CCCOc1ccc(F)c(C(N)=O)c1F` [Example 160, 2,6-Difluoro-3-[3-(5-methyl-2-phenyl-thiazol-4-yl)-propoxy]-benzamide] was tested, and the MIC was less than 8 µg/mL.
`NC(=O)c1c(F)ccc(OCc2nc(-c3cccc(C(F)(F)F)c3)no2)c1F` [Example 258, 2,6-Difluoro-3-(3-[3-(trifluoromethyl)phenyl]-1,2,4-oxadiazol-5-ylmethoxy)benzenecarboxamide] showed an MIC of less than 8 µg/mL.
`CC(C)Oc1cccc(C(N)=O)c1` [Example 3, 3-Isopropoxybenzenecarboxamide] was tested, and the MIC was greater than 64 µg/mL.
Compound `CC(C)CCCCOc1cccc(C(N)=O)c1` [Example 22, 3-[(5-Methylhexyl)oxy]benzenecarboxamide] has an MIC of 16 to 64 µg/mL (≈ 68 to 272 µM).
Work on `NC(=O)c1cccc(OCCCCC2CCCCC2)c1` [Example 44, 3-(4-Cyclohexylbutoxy)benzenecarboxamide] yielded an MIC of less than 8 µg/mL.
With `NC(=O)c1cccc(OCCCCc2ccccc2)c1` [Example 20, 3-(4-Phenylbutoxy)benzenecarboxamide] the MIC was less than 8 µg/mL.
Compound `CCOC(=O)CCCCCOc1cccc(C(N)=O)c1` [Example 37, Ethyl 6-[3-(aminocarbonyl)phenoxy]hexanoate] has an MIC greater than 64 µg/mL.
`NC(=O)c1c(F)ccc(OCc2ccc3cccc(Cl)c3n2)c1F` [Example 112, 3-(8-Chloro-quinolin-2-ylmethoxy)-2,6-difluoro-benzamide] showed an MIC of less than 8 µg/mL.
`CCOC(=O)COc1cccc(C(N)=O)c1` [Example 33, Ethyl 2-[3-(aminocarbonyl)phenoxy]acetate] gave an MIC greater than 64 µg/mL.
With `COCCOc1cccc(C(N)=O)c1` [Example 9, 3-(2-Methoxyethoxy)benzenecarboxamide] the MIC was greater than 64 µg/mL.
In the case of `NC(=O)c1c(F)ccc(OCc2nnc(-c3ccc(Cl)cc3)s2)c1F` [Example 234, 3-[5-(4-Chlorophenyl)-1,3,4-thiadiazol-2-yl]methoxy-2,6-difluorobenzenecarboxamide], the MIC is reported as less than 8 µg/mL.
Work on `NC(=O)c1c(F)ccc(OCc2nc(-c3cccc(Cl)c3)no2)c1F` [Example 255, 3-[3-(3-Chlorophenyl)-1,2,4-oxadiazol-5-yl]methoxy-2,6-difluorobenzenecarboxamide] yielded an MIC of less than 8 µg/mL.
